One experiment deals with T1, human factor XIa (Homo sapiens, UniProt P03951).
T1 construct: purchased Kordia
The experiment can be described thus: Measurement of FXIa inhibition (fluorogenic peptide substrate Boc-Glu(OBzl)-Ala-Arg-AMC). The note with it: factor XIa from Kordia, 15 min preincubation, 30 min at 22° C., fluorescence. It is filed as biochemical. The protocol:
The factor XIa inhibition of the substances according to the invention is determined using a biochemical test system which utilizes the reaction of a peptidic factor XIa substrate to determine the enzymatic activity of human factor XIa. Here, factor XIa cleaves from the peptic factor XIa substrate the C-terminal aminomethylcoumarin (AMC), the fluorescence of which is measured. The determinations are carried out in microtitre plates.
Test substances are dissolved in dimethyl sulphoxide and serially diluted in dimethyl sulphoxide (3000 μM to 0.0078 μM; resulting final concentrations in the test: 50 μM to 0.00013 μM). In each case 1 μl of the diluted substance solutions is placed into the wells of white microtitre plates from Greiner (384 wells). Subsequently, the following are added successively: 20 μl of assay buffer (50 mmol/l Tris buffer pH 7.4; 100 mmol/l sodium chloride; 5 mmol/l calcium chloride; 0.1% bovine serum albumin) and 20 μl of factor XIa from Kordia (0.45 nM in assay buffer). After 15 min of incubation, the enzyme reaction is started by addition of 20 μl of the factor XIa substrate Boc-Glu(OBzl)-Ala-Arg-AMC dissolved in assay buffer (10 μM in assay buffer) from Bachem, the mixture is incubated at room temperature (22° C.) for 30 min and fluorescence is then measured (excitation: 360 nm, emission: 460 nm). The measured emissions of the test batches with test substance are compared to those of control batches without test substance (only dimethyl sulphoxide instead of test substance in dimethyl sulphoxide), and IC50 values are calculated from the concentration/activity relationships.

The subject of another experiment is human and animal plasma. The experiment can be described thus: Determination of anticoagulatory activity: activated partial thromboplastin time (aPTT) in plasma. It is filed as biochemical. The note with it: concentration of test substance which brings about a 1.5-fold extension of the aPTT, 37° C., C.K. Prest kit. On the procedure: The anticoagulatory activity of the test substances is determined in vitro in human and animal plasma (for example mouse, rat, rabbit, pig and dog plasma). To this end, blood is drawn off in a mixing ratio of sodium citrate/blood of 1:9 using a 0.11 molar sodium citrate solution as receiver. Immediately after the blood has been drawn off, it is mixed thoroughly and centrifuged at about 4000 g for 15 minutes. The supernatant is pipetted off.
The activated partial thromboplastin time (aPTT) is determined in the presence of varying concentrations of test substance or the corresponding solvent using a commercial test kit (C.K. Prest from Diagnostica Stago). The test compounds are incubated with the plasma and the PTT reagent (cephalin, kaolin) at 37° C. for 3 minutes. Coagulation is then started by addition of a 25 mM aqueous calcium chloride solution, and the time when coagulation occurs is determined. The concentration of test substance which brings about a 1.5-fold extension of the aPTT is determined Activity data from this test are listed in Table B below: […]

These results are taken from US20160280699A1, “SUBSTITUTED PHENYLALANINE DERIVATIVES” (BAYER PHARMA AKTIENGESELLSCHAFT, priority 2013, published 2016).

A word on the IC50: it is the concentration that inhibits the measured activity by half. High values mean weaker potency, low ones greater potency.

Counter-ions that a name gives are not always drawn.

T1 sequence (P03951 388-625 limits assumed): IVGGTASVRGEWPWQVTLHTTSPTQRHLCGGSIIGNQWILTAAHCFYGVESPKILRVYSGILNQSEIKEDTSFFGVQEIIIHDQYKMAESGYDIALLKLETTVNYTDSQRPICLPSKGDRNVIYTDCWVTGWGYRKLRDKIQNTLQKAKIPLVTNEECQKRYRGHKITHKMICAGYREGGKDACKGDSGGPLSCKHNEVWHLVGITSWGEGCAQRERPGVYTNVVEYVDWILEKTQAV
T1 sequence (P03951 19-387 partner limits assumed): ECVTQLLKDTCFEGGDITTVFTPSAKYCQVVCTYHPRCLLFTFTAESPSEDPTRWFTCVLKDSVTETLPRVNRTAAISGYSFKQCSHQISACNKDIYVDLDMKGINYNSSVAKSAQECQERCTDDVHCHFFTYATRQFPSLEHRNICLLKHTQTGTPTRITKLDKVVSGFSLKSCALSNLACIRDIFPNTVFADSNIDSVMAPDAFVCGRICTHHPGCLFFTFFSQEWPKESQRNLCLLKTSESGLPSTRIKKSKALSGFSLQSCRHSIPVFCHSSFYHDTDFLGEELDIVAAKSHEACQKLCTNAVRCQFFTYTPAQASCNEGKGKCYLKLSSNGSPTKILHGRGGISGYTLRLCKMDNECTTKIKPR

In turn, `NC[C@H]1CC[C@H](C(=O)N[C@@H](Cc2ccc(-c3cnc(N4CCOCC4)nc3)cc2)C(=O)Nc2ccc(-c3nnn[nH]3)cc2)CC1` [Example 1, N-alpha-{[trans-4-(Aminomethyl)cyclohexyl]carbonyl}-4-[2-(morpholin-4-yl)pyrimidin-5-yl]-N-[4-(1H-tetrazol-5-yl)phenyl]-L-phenylalaninamide hydrochloride] displayed an IC50 against human factor XIa of 5.7 nM.

For `CN1CCN(S(=O)(=O)c2cncc(-c3ccc(C[C@H](NC(=O)[C@H]4CC[C@H](CN)CC4)C(=O)Nc4ccc(-c5nnn[nH]5)cc4)cc3)c2)CC1` [Example 2, N-alpha-{[trans-4-(Aminomethyl)cyclohexyl]carbonyl}-4-{5-[(4-methylpiperazin-1-yl)sulphonyl]pyridin-3-yl}-N-[4-(1H-tetrazol-5-yl)phenyl]-L-phenylalaninamide hydrochloride], in the experiment on human and animal plasma, the “aPTT” value came to 0.28 µmol/L. The half-maximal inhibitory concentration (IC50) against human factor XIa was found to be 5.3 nM.

Regarding `NC[C@H]1CC[C@H](C(=O)N[C@@H](Cc2ccc(-c3cccnc3Cl)cc2)C(=O)Nc2ccc(-c3nnn[nH]3)cc2)CC1` [Example 3, N-alpha-{[trans-4-(Aminomethyl)cyclohexyl]carbonyl}-4-(2-chloropyridin-3-yl)-N-[4-(1H-tetrazol-5-yl)phenyl]-L-phenylalaninamide hydrochloride], the “aPTT” value in the experiment on human and animal plasma came out at 0.24 µmol/L. The same compound displayed an IC50 on human factor XIa of 2.3 nM.

With `CN(C)c1ccc(-c2ccc(C[C@H](NC(=O)[C@H]3CC[C@H](CN)CC3)C(=O)Nc3ccc(-c4nnn[nH]4)cc3)cc2)cn1` [Example 4, N-alpha-{[trans-4-(Aminomethyl)cyclohexyl]carbonyl}-4-[6-(dimethylamino)pyridin-3-yl]-N-[4-(1H-tetrazol-5-yl)phenyl]-L-phenylalaninamide hydrochloride], the “aPTT” value with human and animal plasma turned out to be 0.23 µmol/L. The compound further returned an IC50 against human factor XIa of 3.8 nM.

`NC[C@H]1CC[C@H](C(=O)N[C@@H](Cc2ccc(-c3cccnc3)cc2)C(=O)Nc2ccc(-c3nn[nH]n3)cc2)CC1` [Example 5, N-alpha-{[trans-4-(Aminomethyl)cyclohexyl]carbonyl}-4-pyridin-3-yl-N-[4-(2H-tetrazol-5-yl)phenyl]phenylalaninamide]: in the experiment on human and animal plasma, the “aPTT” value came to 0.35 µmol/L. Besides, on human factor XIa, inhibition was half-maximal at 7 nM (IC50).

In the case of `CN(C)CCCOc1ccc(-c2ccc(C[C@H](NC(=O)[C@H]3CC[C@H](CN)CC3)C(=O)Nc3ccc(-c4nn[nH]n4)cc3)cc2)cn1` [Example 6, N-alpha-{[trans-4-(Aminomethyl)cyclohexyl]carbonyl}-4-{6-[3-(dimethylamino)propoxy]pyridin-3-yl}-N-[4-(2H-tetrazol-5-yl)phenyl]-L-phenylalaninamide hydrochloride], it took 15 nM to reach half-maximal inhibition against human factor XIa (IC50).

Take `NC[C@H]1CC[C@H](C(=O)N[C@@H](Cc2ccc(-c3ccc(N4CCOCC4)nc3)cc2)C(=O)Nc2ccc(-c3nn[nH]n3)cc2)CC1` [Example 7, N-alpha-{[trans-4-(Aminomethyl)cyclohexyl]carbonyl}-4-[6-(morpholin-4-yl)pyridin-3-yl]-N-[4-(2H-tetrazol-5-yl)phenyl]-L-phenylalaninamide hydrochloride]: the “aPTT” value in the experiment on human and animal plasma was determined as 0.29 µmol/L. The half-maximal inhibitory concentration (IC50) at human factor XIa worked out at 2.2 nM.

For the compound `NC[C@H]1CC[C@H](C(=O)N[C@@H](Cc2ccc(-c3ccncc3)cc2)C(=O)Nc2ccc(-c3noc(=O)[nH]3)cc2)CC1` [Example 8, N-alpha-{[trans-4-(Aminomethyl)cyclohexyl]carbonyl}-N-[4-(5-oxo-4,5-dihydro-1,2,4-oxadiazol-3-yl)phenyl]-4-pyridin-4-yl-L-phenylalaninamide hydrochloride], the “aPTT” value in the experiment with human and animal plasma was 0.15 µmol/L. The compound also gave an IC50 against human factor XIa of 9.2 nM.

On to `NC[C@H]1CC[C@H](C(=O)N[C@@H](Cc2ccc(-c3cncc(Cl)c3)cc2)C(=O)Nc2ccc(-c3nn[nH]n3)cc2)CC1` [Example 10, N-alpha-{[trans-4-(Aminomethyl)cyclohexyl]carbonyl}-4-(5-chloropyridin-3-yl)-N-[4-(2H-tetrazol-5-yl)phenyl]-L-phenylalaninamide hydrochloride], for which the IC50 on human factor XIa worked out at 6.2 nM.

For the compound `NC[C@H]1CC[C@H](C(=O)N[C@@H](Cc2ccc(-c3ccncc3)cc2)C(=O)Nc2ccc(-c3nn[nH]n3)cc2)CC1` [Example 11, N-alpha-{[trans-4-(Aminomethyl)cyclohexyl]carbonyl}-4-pyridin-4-yl-N-[4-(2H-tetrazol-5-yl)phenyl]-L-phenylalaninamide hydrochloride], the “aPTT” value in the experiment with human and animal plasma is 0.24 µmol/L. In addition, at human factor XIa, half-maximal inhibition (IC50) was put at 5.2 nM.

With `NC[C@H]1CC[C@H](C(=O)N[C@@H](Cc2ccc(-c3cnccc3Cl)cc2)C(=O)Nc2ccc(-c3nn[nH]n3)cc2)CC1` [Example 12, N-alpha-{[trans-4-(Aminomethyl)cyclohexyl]carbonyl}-4-(4-chloropyridin-3-yl)-N-[4-(2H-tetrazol-5-yl)phenyl]-L-phenylalaninamide hydrochloride], in the experiment on human and animal plasma, the “aPTT” value stood at 0.43 µmol/L. The IC50 against human factor XIa amounted to 5.9 nM.

As for `Cc1ncccc1-c1ccc(C[C@H](NC(=O)[C@H]2CC[C@H](CN)CC2)C(=O)Nc2ccc(-c3nn[nH]n3)cc2)cc1` [Example 13, N-alpha-{[trans-4-(Aminomethyl)cyclohexyl]carbonyl}-4-(2-methylpyridin-3-yl)-N-[4-(2H-tetrazol-5-yl)phenyl]-L-phenylalaninamide hydrochloride], the “aPTT” value in the experiment on human and animal plasma came to 0.13 µmol/L. Also, the IC50 against human factor XIa was 2.1 nM.

Regarding `NC[C@H]1CC[C@H](C(=O)N[C@@H](Cc2ccc(-c3cccnc3)cc2)C(=O)Nc2ccc(-c3noc(=O)[nH]3)cc2)CC1` [Example 14, N-alpha-{[trans-4-(Aminomethyl)cyclohexyl]carbonyl}-N-[4-(5-oxo-4,5-dihydro-1,2,4-oxadiazol-3-yl)phenyl]-4-pyridin-3-yl-L-phenylalaninamide hydrochloride], the “aPTT” value in the experiment on human and animal plasma worked out at 0.28 µmol/L. In addition, the IC50 at human factor XIa worked out at 8.5 nM.

For `NC[C@H]1CC[C@H](C(=O)N[C@@H](Cc2ccc(-c3ccncc3Cl)cc2)C(=O)Nc2ccc(-c3nn[nH]n3)cc2)CC1` [Example 15, N-alpha-{[trans-4-(Aminomethyl)cyclohexyl]carbonyl}-4-(3-chloropyridin-4-yl)-N-[4-(2H-tetrazol-5-yl)phenyl]-L-phenylalaninamide hydrochloride], the “aPTT” value in the experiment on human and animal plasma worked out at 0.14 µmol/L. This compound gave an IC50 against human factor XIa of 2.8 nM.

As to `NC[C@H]1CC[C@H](C(=O)N[C@@H](Cc2ccc(-c3ccc(O)nc3)cc2)C(=O)Nc2ccc(-c3nn[nH]n3)cc2)CC1` [Example 17, N-alpha-{[trans-4-(Aminomethyl)cyclohexyl]carbonyl}-4-(6-hydroxypyridin-3-yl)-N-[4-(2H-tetrazol-5-yl)phenyl]-L-phenylalaninamide hydrochloride], the IC50 at human factor XIa worked out at 10 nM.

At human factor XIa, `COc1ccc(-c2ccc(C[C@H](NC(=O)[C@H]3CC[C@H](CN)CC3)C(=O)Nc3ccc4cn[nH]c4c3)cc2)c(C)n1` [Example 28, N-alpha-{[trans-4-(Aminomethyl)cyclohexyl]carbonyl}-N-1H-indazol-6-yl-4-(6-methoxy-2-methylpyridin-3-yl)-L-phenylalaninamide hydrochloride] registered an IC50 of 7.8 nM.

At human factor XIa, `NC[C@H]1CC[C@H](C(=O)N[C@@H](Cc2ccc(-c3ccnc(N4CCOCC4)c3)cc2)C(=O)Nc2ccc3c(=O)[nH][nH]c3c2)CC1` [Example 36, N-alpha-{[trans-4-(Aminomethyl)cyclohexyl]carbonyl}-4-[2-(morpholin-4-yl)pyridin-4-yl]-N-(3-oxo-2,3-dihydro-1H-indazol-6-yl)-L-phenylalaninamide hydrochloride] returned an IC50 of 7.2 nM. The IC50 values of the last two compounds are within 1.5-fold of each other.

At human factor XIa, `COc1ccc(-c2ccc(C[C@H](NC(=O)[C@H]3CC[C@H](CN)CC3)C(=O)Nc3ccc(-c4nn[nH]n4)cc3)cc2)cn1` [Example 38, N-alpha-{[trans-4-(Aminomethyl)cyclohexyl]carbonyl}-4-(6-methoxypyridin-3-yl)-N-[4-(2H-tetrazol-5-yl)phenyl]-L-phenylalaninamide] gave an IC50 of 4.8 nM.

In turn, `CCOc1ncccc1-c1ccc(C[C@H](NC(=O)[C@H]2CC[C@H](CN)CC2)C(=O)Nc2ccc(-c3nn[nH]n3)cc2)cc1` [Example 42, N-alpha-{[trans-4-(Aminomethyl)cyclohexyl]carbonyl}-4-(2-ethoxypyridin-3-yl)-N-[4-(2H-tetrazol-5-yl)phenyl]-L-phenylalaninamide hydrochloride] gave a half-inhibitory concentration (IC50) at human factor XIa of 3 nM.
